The subject of this data set is Sprague-Dawley rats. The data set can be described thus: Rat elevated zero maze model of anxiety. It counts as in vivo. To be noted: for time spent in the open arms / frequency of stretched attend postures (SAPs): 30 min pretest, 5-min test; for time spent in the open arms: vs vehicle; for anxiogenic effect: across doses tested (2.5-30 mg/kg ip); for anxiolytic effect: at a sufficient dose. The source says:
The rat zero-maze model is a refined alternative to the plus-maze, the most widely used animal model of anxiety, and consists of an elevated annular platform, divided equally into four quadrants. Two opposite quadrants are enclosed by Perspex walls on both the inner and the outer edges of the platform, while the remaining two opposite quadrants are open being enclosed only by a Perspex “lip”. Animals will show a preference for the closed areas, and avoidance of the open sections is assumed to stem from a rodent's natural aversion to open, exposed spaces. The primary index of anxiety, which reflect changes in open arm preference, is the percentage of time spent on the open areas. A reduction in the amount of activity on the open areas is considered to reflect an increase in anxiety. Other, ethologically-based behaviours are also assessed as indices of anxiety. One of the most important is stretched attend postures (SAP) from closed to open quadrants. […] Shepherd, J K; et al., (1994) Behavioural and pharmacological validation of the elevated “zero-maze” as an animal model of anxiety. Psychopharmacol., 116:56-64.
Male Sprague-Dawley 200-250 g (Envigo UK) rats were used. Animals were group-housed (5 per cage; cage size: 40×40×20 cm) in a temperature-controlled environment (22±2° C.), under a 12 h light-dark cycle (lights on: 08:00 hours) for one week prior to testing. Food and water were freely available. Number of animals per group=5. Animals were moved into the experimental room 16-24 hours before testing.
The elevated 0-maze comprises a black Perspex annular platform (105 cm diameter, 10 cm width) elevated to 65 cm above ground level, divided equally into four quadrants. Two opposite quadrants are enclosed by clear red Perspex walls (27 cm high) on both the inner and outer edges of the platform, while the remaining two opposite quadrants are surrounded only by a Perspex “lip” (1 cm high) which serves as a tactile guide to animals on these open areas.
Subjects were weighed and tail marked before being injected. After a specified pretreatment time, subjects were placed in a closed quadrant and a 5-min test period were recorded on videotape for subsequent analysis. The maze were cleaned with 5% methanol/water solution and dried thoroughly between test sessions. Behavioural measures comprise percentage time spent on the open areas (% TO) and frequency of stretched attend postures (SAP) from closed to open quadrants. Since the control groups were all treated identically with the same vehicle these were combined to increase power. The Chlordiazepoxide groups were also treated identically with the same dose so these were also combined to increase power. Animals are scored as being in the open area when all four paws were in an open quadrant and in the closed area only when all four paws have passed over the open-closed divide. All testing were carried out between 9.00 and 16.00 hours.
Drug Versus Vehicle Treatments For each study, a 1-way ANOVA was conducted across vehicle, CDP, and drug treatment groups. Each group was compared to the vehicle group and a p-value for treatment determined by Fishers Least Significant Difference (LSD) test. This analysis was performed in GraphPad Prism (Version 9).Formulations: […]
Intraperitoneal (IP): Racemic methylone HCl was formulated in Vehicle 1 (Saline) for injection to concentrations of 1, 3 and 6 mg/mL to provide doses of 5, 15 and 30 mg/kg when administered ip in 5 mL/kg dosing volumes.
Intraperitoneal (IP): S-methylone HCl was formulated in Vehicle 1 (Saline) for injection to concentrations of 0.5, 1, 1.5, 3 and 6 mg/mL to provide doses of 2.5, 5, 7.5, 15 and 30 mg/kg when administered ip in 5 mL/kg dosing volumes.
Intraperitoneal (IP): R-methylone HCl was formulated in Vehicle 1 (Saline) for injection to concentrations of 1, 3 and 6 mg/mL to provide doses of 5, 15 and 30 mg/kg when administered ip in 5 mL/kg dosing volumes. […]

[1] abbreviates: 30 mg/kg ip vs chlordiazepoxide 6 mg/kg ip.

Structures can show the parent of a compound that is named as a salt.

Regarding `CNC(C)C(=O)c1ccc2c(c1)OCO2` (racemic) [(rac)-Methylone Hydrochloride, 3,4-methylenedioxy-N-methylcathinone hydrochloride], the anxiogenic effect result is listed as “show anxiogenic effects at lower doses” and the anxiolytic effect entry is listed as “effective anxiolytics”. The “time spent in the open arms” value (5 mg/kg ip) was “a decrease in time spent in the open arms vs placebo”. The “decrease in SAPs compared with chlordiazepoxide” value (from here on “decrease in SAPs”) (15 mg/kg ip vs chlordiazepoxide 6 mg/kg ip) was “not as effective as chlordiazepoxide”. Where the note is “15 mg/kg ip”, the “frequency of stretched attend postures (SAPs)” value (shortened to “frequency … (SAPs)”) is “dose dependent decrease in SAPs” and the “time spent in the open arms” value is reported as “no difference from placebo”. Under “30 mg/kg ip”, the “frequency … (SAPs)” value was “a decrease in SAPs” and the “time spent in the open arms” value was “a significant decrease in time spent in the open arms”.

On to `CN[C@H](C)C(=O)c1ccc2c(c1)OCO2` [(R)-Methylone Hydrochloride, (R)-1-(Benzo[d][1,3]dioxol-5-yl)-2-(methylamino)propan-1-one Hydrochloride], for which the anxiogenic effect result is reported as “did not show any anxiogenic effect at any dose” and the anxiolytic effect entry is given as “effective anxiolytics”. Also, under setting [1], the “decrease in SAPs” value was “to the same level as chlordiazepoxide” and the “time spent in the open arms compared with chlordiazepoxide” value was “as effective as chlordiazepoxide”. Besides, the “frequency … (SAPs)” value (30 mg/kg ip) is reported as “significantly decreasing SAPs”. Further, for the setting “5, 15 and 30 mg/kg ip”, the “frequency of SAPs, dose dependence” value is on record as “dose dependent decrease in SAPs” and the “time spent in the open arms, dose dependence” value is “dose dependent increase in time spent in the open arms”.

In the case of `CN[C@@H](C)C(=O)c1ccc2c(c1)OCO2` [(S)-Methylone Hydrochloride, (S)-1-(Benzo[d][1,3]dioxol-5-yl)-2-(methylamino)propan-1-one Hydrochloride], the anxiogenic effect result is “show anxiogenic effects at lower doses” and the anxiolytic effect entry was “effective anxiolytics”. In addition, the “frequency … (SAPs)” value (2.5 mg/kg ip) is given as “dose dependent increase in SAPs”. Where the note is “5 mg/kg ip”, the “frequency … (SAPs)” value is reported as “dose dependent increase in SAPs” and the “time spent in the open arms” value is reported as “the time spent in the open arms decreased as the dose increased”. Also, for the setting “7.5 mg/kg ip”, the “frequency … (SAPs)” value is on record as “dose dependent decrease in SAPS” and the “time spent in the open arms” value was “the time spent in the open arms decreased as the dose increased”. Besides, under “15 mg/kg ip”, the “frequency … (SAPs)” value is “dose dependent decrease in SAPS” and the “time spent in the open arms” value is “the time spent in the open arms decreased as the dose increased”. For the same compound, under setting [1], the “decrease in SAPs” value is listed as “even more effective than chlordiazepoxide” and the “time spent in the open arms compared with chlordiazepoxide” value is reported as “as effective as chlordiazepoxide”. In addition, for the setting “30 mg/kg ip”, the “frequency … (SAPs)” value is given as “dose dependent decrease in SAPS” and the “time spent in the open arms” value is on record as “the time in the open arms increased”.

The record behind these values is US20240294488A1, “ISOTOPOLOGES, SALTS, CRYSTALLINE FORMS, STEREOISOMERS, OF METHYLONE AND ETHYLONE AND METHODS OF USE THEREOF” (Terran Biosciences Inc., priority 2021, published 2024).
